Results reported in patent publication US10781224B2, “Bis(oxymethyl)phosphinic acid and biogenic metal salts thereof as regulators of plant growth and development” (priority 2016, dated 2020).

What was measured:
Assay type in all cases: in vivo
[1] = system: corn (Krasnodar 385 MV variety); assay: Corn seed treatment with BHMPA salts: germinating power
In short: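 Seeds (50 per Petri dish on two layers of filter paper) soaked 1 h in BHMPA or its Ca, Mg, Na, Co, Mn, Cu or Zn salts at 1·10^−6-1·10^−12%, with water controls. Germination energy read on day 4, germination on day 8 (wheat) or day 7 (rice, corn), as % means of four replicates. Germinating power taken as root and sprout length plus wet and dry mass per 100 seedlings.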

rice (Diamant variety) = assay: Rice seed treatment with BHMPA salts: germination energy and germination rate
In short: (§1)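 Corn, winter wheat and rice seeds (50 per dish, on filter paper) were soaked for 1 h in BHMPA or its metal salts at 1·10^−6-1·10^−12%, with water as control. Germination energy was read on day 4 and germination rate on day 8 for wheat and day 7 for rice and corn, following GOST 12038-84, as the mean of four replicates.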

[2] = system: corn (Krasnodar 385 MV variety); assay: Corn seed treatment with BHMPA salts: germination energy and germination rate
In short: as §1

[3] = corn seeds, solution concentration 1 · 10^−6%, magnesium salt of BHMPA
[4] = corn seeds, solution concentration 1 · 10^−7%, magnesium salt of BHMPA
[5] = corn seeds, solution concentration 1 · 10^−8%, magnesium salt of BHMPA
[6] = corn seeds, solution concentration 1 · 10^−9%, magnesium salt of BHMPA
[7] = corn seeds, solution concentration 1 · 10^−10%, magnesium salt of BHMPA
[8] = corn seeds, solution concentration 1 · 10^−11%, magnesium salt of BHMPA
[9] = corn seeds, solution concentration 1 · 10^−12%, magnesium salt of BHMPA
[10] = corn, over the tested concentrations
[11] = rice seed treatment, solution 1 · 10^−10%
[12] = seed treatment, concentration 1 · 10^−6%
[13] = seed treatment, concentration 1 · 10^−7%
[14] = seed treatment, concentration 1 · 10^−8%
[15] = seed treatment, concentration 1 · 10^−9%
[16] = seed treatment, concentration 1 · 10^−10%
[17] = seed treatment, concentration 1 · 10^−11%
[18] = seed treatment, concentration 1 · 10^−12%
[19] = comparative study vs Melaphen, 1·10^−9% solution

Structure (SMILES): O=P([O-])(CO)CO.O=P([O-])(CO)CO.[Mg+2] [Mg-salt, Magnesium BHMPA Salt]
- optimum concentration for treating corn seeds before sowing ([1]; corn): 1·10^−9%
- Length, root [1, 3]: 6.4 cm
- Length, root, + % to control [1, 3]: 21%
- Length, sprout [1, 3]: 2.9 cm
- Length, sprout, + % to control [1, 3]: −12%
- Mass, dry, root [1, 3]: 1.60 g/100 plantlings
- Mass, dry, root, + % to control [1, 3]: 9.5%
- Mass, dry, sprout [1, 3]: 1.07 g/100 plantlings
- Mass, dry, sprout, + % to control [1, 3]: 11%
- Mass, wet, root [1, 3]: 10.29 g/100 plantlings
- Mass, wet, root, + % to control [1, 3]: 17%
- Mass, wet, sprout [1, 3]: 7.17 g/100 plantlings
- Mass, wet, sprout, + % to control [1, 3]: 12%
- Length, root [1, 4]: 7.0 cm
- Length, root, + % to control [1, 4]: 32%
- Length, sprout [1, 4]: 3.3 cm
- Length, sprout, + % to control [1, 4]: 0%
- Mass, dry, root [1, 4]: 1.81 g/100 plantlings
- Mass, dry, root, + % to control [1, 4]: 24%
- Mass, dry, sprout [1, 4]: 1.12 g/100 plantlings
- Mass, dry, sprout, + % to control [1, 4]: 17%
- Mass, wet, root [1, 4]: 10.86 g/100 plantlings
- Mass, wet, root, + % to control [1, 4]: 24%
- Mass, wet, sprout [1, 4]: 7.93 g/100 plantlings
- Mass, wet, sprout, + % to control [1, 4]: 23.5%
- Length, root [1, 5]: 8.5 cm
- Length, root, + % to control [1, 5]: 60%
- Length, sprout [1, 5]: 3.5 cm
- Length, sprout, + % to control [1, 5]: 6%
- Mass, dry, root [1, 5]: 1.91 g/100 plantlings
- Mass, dry, root, + % to control [1, 5]: 31%
- Mass, dry, sprout [1, 5]: 1.19 g/100 plantlings
- Mass, dry, sprout, + % to control [1, 5]: 24%
- Mass, wet, root [1, 5]: 11.64 g/100 plantlings
- Mass, wet, root, + % to control [1, 5]: 33%
- Mass, wet, sprout [1, 5]: 8.89 g/100 plantlings
- Mass, wet, sprout, + % to control [1, 5]: 38%
- Length, root [1, 6]: 9.1 cm
- Length, sprout [1, 6]: 3.8 cm
- Mass, dry, root [1, 6]: 2.02 g/100 plantlings
- Mass, dry, root, + % to control [1, 6]: 38%
- Mass, dry, sprout [1, 6]: 1.27 g/100 plantlings
- Mass, dry, sprout, + % to control [1, 6]: 32%
- Mass, wet, root [1, 6]: 12.42 g/100 plantlings
- Mass, wet, root, + % to control [1, 6]: 42%
- Mass, wet, sprout [1, 6]: 10.35 g/100 plantlings
- Mass, wet, sprout, + % to control [1, 6]: 61%
- Length, root [1, 7]: 8.3 cm
- Length, root, + % to control [1, 7]: 57%
- Length, sprout [1, 7]: 3.6 cm
- Length, sprout, + % to control [1, 7]: 9%
- Mass, dry, root [1, 7]: 1.96 g/100 plantlings
- Mass, dry, root, + % to control [1, 7]: 34%
- Mass, dry, sprout [1, 7]: 1.20 g/100 plantlings
- Mass, dry, sprout, + % to control [1, 7]: 25%
- Mass, wet, root [1, 7]: 11.86 g/100 plantlings
- Mass, wet, root, + % to control [1, 7]: 35%
- Mass, wet, sprout [1, 7]: 8.62 g/100 plantlings
- Mass, wet, sprout, + % to control [1, 7]: 34%
- Length, root [1, 8]: 8.1 cm
- Length, root, + % to control [1, 8]: 53%
- Length, sprout [1, 8]: 3.0 cm
- Length, sprout, + % to control [1, 8]: −9%
- Mass, dry, root [1, 8]: 1.81 g/100 plantlings
- Mass, dry, root, + % to control [1, 8]: 24%
- Mass, dry, sprout [1, 8]: 1.10 g/100 plantlings
- Mass, dry, sprout, + % to control [1, 8]: 14.5%
- Mass, wet, root [1, 8]: 10.04 g/100 plantlings
- Mass, wet, root, + % to control [1, 8]: 14%
- Mass, wet, sprout [1, 8]: 8.18 g/100 plantlings
- Mass, wet, sprout, + % to control [1, 8]: 27%
- Length, root [1, 9]: 7.8 cm
- Length, root, + % to control [1, 9]: 47%
- Length, sprout [1, 9]: 2.8 cm
- Length, sprout, + % to control [1, 9]: −15%
- Mass, dry, root [1, 9]: 1.57 g/100 plantlings
- Mass, dry, root, + % to control [1, 9]: 7.5%
- Mass, dry, sprout [1, 9]: 0.94 g/100 plantlings
- Mass, dry, sprout, + % to control [1, 9]: −2%
- Mass, wet, root [1, 9]: 9.18 g/100 plantlings
- Mass, wet, root, + % to control [1, 9]: 5%
- Mass, wet, sprout [1, 9]: 7.04 g/100 plantlings
- Mass, wet, sprout, + % to control [1, 9]: 10%
- Length, root, + % to control ([1]; corn, 1·10^−9% solution): 72%
- Length, sprout, + % to control ([1]; corn, 1·10^−9% solution): 15%
- Mass, dry, root, + % to control ([1]; corn, 1·10^−9% solution): 38%
- Mass, dry, sprout, + % to control ([1]; corn, 1·10^−9% solution): 32%
- Mass, wet, root, + % to control ([1]; corn, 1·10^−9% solution): 42%
- Mass, wet, sprout, + % to control ([1]; corn, 1·10^−9% solution): 61%
- increase of germinating power of the roots [1, 10]: 21%-72%
- sprout length changes [1, 10]: −15% to +15%
- Germination energy, % (rice (Diamant variety); [11]): 87.5%
- Germination rate, % (rice (Diamant variety); [11]): 94.0%
- Germination energy (rice (Diamant variety); rice, 1·10^−10% solution): 86.3%
- Germination rate (rice (Diamant variety); rice, 1·10^−10% solution): 92.7%
- Germination energy (rice (Diamant variety); [12]): 77.7%
- Germination rate (rice (Diamant variety); [12]): 83.3%
- Germination energy (rice (Diamant variety); [13]): 80.3%
- Germination rate (rice (Diamant variety); [13]): 85.0%
- Germination energy (rice (Diamant variety); [14]): 81.7%
- Germination rate (rice (Diamant variety); [14]): 87.3%
- Germination energy (rice (Diamant variety); [15]): 84.3%
- Germination rate (rice (Diamant variety); [15]): 90.7%
- Germination energy (rice (Diamant variety); [16]): 86.3%
- Germination rate (rice (Diamant variety); [16]): 92.7%
- Germination energy (rice (Diamant variety); [17]): 83.3%
- Germination rate (rice (Diamant variety); [17]): 89.3%
- Germination energy (rice (Diamant variety); [18]): 79.3%
- Germination rate (rice (Diamant variety); [18]): 84.7%
- Germination energy ([2]; 1·10^−6% solution): 82.3%
- Germination rate ([2]; 1·10^−6% solution): 84.7%
- Germination energy ([2]; 1·10^−7% solution): 85.3%
- Germination rate ([2]; 1·10^−7% solution): 89.0%
- Germination energy ([2]; 1·10^−8% solution): 87.7%
- Germination rate ([2]; 1·10^−8% solution): 93.3%
- Germination energy ([2]; 1·10^−9% solution): 89.71%
- Germination rate ([2]; 1·10^−9% solution): 95.8%
- Germination energy ([2]; 1·10^−9% solution, listed as Mg): 89.7%
- Germination energy ([2]; 1·10^−10% solution): 90.3%
- Germination rate ([2]; 1·10^−10% solution): 93.7%
- Germination energy ([2]; 1·10^−11% solution): 88.0%
- Germination rate ([2]; 1·10^−11% solution): 91.7%
- Germination energy ([2]; 1·10^−12% solution): 86.7%
- Germination rate ([2]; 1·10^−12% solution): 90.8%
- Germination energy [2, 19]: 86.0%
- Germination rate [2, 19]: 95.7%
